For experiment [1], the target named is T1, NMDA receptor (Rattus norvegicus, UniProt P35439).
T1 construct: well washed rat cortical membranes (200 μg); from tissue; host or cells: rat cerebral cortex membranes
The experiment is described as follows: [3H] MK-801 Binding Assay (MK-801 Glycine Site Binding Assay: Rat Cortex). The procedure: Assays were conducted as described in Moskal et al. (Moskal, J. R., Kuo, A. G., Weiss, C., Wood, P. L., O'Connor Hanson, A., Kelso, S., Harris, R. B., Disterhoft, J. F., 2005. GLYX-13: a monoclonal antibody-derived peptide that acts as an N-methyl-D-aspartate receptor modulator. Neuropharmacology. 49, 1077-87) The potentiation of [^3H]MK-801 binding (5 nM; 22.5 Ci/mmol) to well washed rat cortical membranes (200 μg) was measured under non-equilibrium conditions (15 min @25° C.) in the presence of increasing concentrations of test compounds and 50 μM glutamate. Zero levels were determined in the absence of any glycine ligand and in the presence of 30 μM 5,7 DCKA. Maximal stimulation was measured in the presence of 1 mM glycine, and 50 μM glutamate was present in all samples. The facilitation of [^3H]MK-801 binding by tests compounds was calculated by using a 3 parameter log agonist vs. response equation (Graph pad Prism, USA) and potency (EC50, expressed in pM) and maximal activity (% maximal stimulation) were calculated for the test compound.

Experiment [2] has as its system LTP. The experiment is described as follows: LTP augmentation. The conditions noted are these: LTP concentration 1 uM.
The nature of experiment [3]: Porsolt floating time inhibition. The format is in vivo. The conditions noted are these: 1 hour post dose.
Setting [4] is: Table 3, read-out: MK-801 Glycine Site Binding Assay: Rat Cortex EC50.

The text below walks through data of patent US9828384B2, “Spiro-lactam NMDA receptor modulators and uses thereof” (Aptinyx Inc., priority 2013, dated 2017).

Where two headings read alike, the source gives them in different places.

A word on the EC50: it is the concentration needed to bring the measured effect to its halfway point. The Emax is the maximal effect, on the per cent scale that the assay sets.

For the compound “2-(2-hydroxy-1-(pyrimidin-2-yl)propyl)-3,6-dimethyl-2, 5-diazaspiro[3,4]octan-1-one [Compound C-33]”, the EC50 in experiment [1] (setting [4]) was determined as 0.00713 nM. In addition, the “LTP: LTP Augmentation (%)” value in experiment [2] amounted to 30%.
Consider `C[C@@H](O)[C@@H](c1ncno1)N1CC2(CCCN2C(=O)OC(C)(C)C)C1=O` (stereo partly drawn) [Compound C-15, tert-butyl 2-((1S,2R)-2-hydroxy-1-(1,2,4-oxadiazol-5-yl)propyl)-1-oxo-2,5-diazaspiro[3,4]octane-5-carboxylate], for which the “Unified Activity Data: LTP Augmentation (Percent)” value in experiment [2] is listed as 120%. For the same compound, the “Unified Activity Data: Porsolt Floating Time Inhibition (Percent)” value in experiment [3] (1 mg/kg PO) turned out to be 86%.
Regarding `CC(O)C(c1ncccn1)N1CC2(CCC(C)N2C(=O)OC(C)(C)C)C1=O` (centres unmarked) [Compound C-19, tert-butyl 2-(2-hydroxy-1-(pyrimidin-2-yl)propyl)-6-methyl-1-oxo-2,5-diazaspiro[3,4]octane-5-carboxylate], the EC50 in experiment [1] (setting [4]) turned out to be 0.11 nM. In experiment [2], the “LTP: LTP Augmentation (%)” value is 110%.
Take `CC1N([C@@H](c2nnco2)[C@H](C)O)C(=O)C12CCCN2C(=O)OC(C)(C)C` (stereo partly drawn) [Compound C-26, tert-butyl 2-((1R, 2S)-2-hydroxy-1-(1,3,4-oxadiazol-2-yl)propyl)-1-methyl-3-oxo-2,5-diazaspiro[3,4]octane-5-carboxylate]: the “LTP: LTP Augmentation (%)” value in experiment [2] was 65%.
Turning to `CC(O)C(c1ncccn1)N1C(=O)C2(CCCN2C(=O)OC(C)(C)C)C1C` (centres unmarked) [Compound C-29, tert-butyl 2-(2-hydroxy-1-(pyrimidin-2-yl)propyl)-1-methyl-3-oxo-2,5-diazaspiro[3,4]octane-5-carboxylate], the EC50 in experiment [1] (setting [4]) was determined as 0.135 nM. In experiment [2], the “LTP: LTP Augmentation (%)” value amounted to 125%.
On to `CC(O)C(c1ncccn1)N1CC2(CCCN2)C1=O` (centres unmarked) [Compound Y, 2-(2-hydroxy-1-(pyrimidin-2-yl)propyl)-2,5-diazaspiro[3.4]octan-1-one], for which the EC50 in experiment [1] (Table 2, read-out: MK-801 Glycine Site Binding Assay: Rat Cortex EC50) turned out to be 0.288 nM; in experiment [1] (rat cortical membranes, 50 μM glutamate, read-out: potency (EC50) for potentiation of [3H]MK-801 binding) it was 0.288 nM. Besides, the Emax in experiment [1] (maximal stimulation measured with 1 mM glycine, 50 μM glutamate) turned out to be 14%. In addition, in experiment [2], the “Unified Activity Data: LTP Augmentation (Percent)” value was found to be 140%. In experiment [3] (3 mg/kg IV), the “Unified Activity Data: Porsolt Floating Time Inhibition (Percent)” value worked out at 92%.
